Measured values from patent publication US20160113931A1, “Method of treating and/or preventing neurodegenerative diseases” (University of Macau, priority 2014, published 2016).
Entries after “also recorded” stand apart in the source; their conditions may differ.

Columns and labels:
primary cortical neurons = assay: MPP+-induced neuronal death in primary cortical neurons (LDH release); type: cell-based, rat; conditions: 2 h pre-treatment, 200 μM MPP+ 24 h
Description: Primary culture of cortical neurons was prepared from embryonic day 18±0.5 Sprague-Dawley rats. One day after seeding, primary cortical neurons were treated with 10 and 30 μM BHDPC for 14 days. Fourteen days following BHDPC treatment, primary cortical neurons cultured on glass coverslips (Thermo Scientific) were fixed with 4% paraformaldehyde for 15 min. Following fixation, neurons were permeabilized with 0.1% Triton X-100 in Tris-buffered saline for 7 min, and blocked with 4% bovine serum albumin and 2% goat serum for 1 h. α-tubulin and MAP2 were incubated at 1:400 dilution for 1 h at room temperature and overnight at 4° C. respectively. Following primary antibody incubation, neurons were incubated with Alexa Flour 488 or 568 secondary antibodies (anti-rabbit or anti-mouse) at 1:400 dilution for 1 h at room temperature. […] Fluorescence intensity was measured using Image J.
Cell cytotoxicity was also determined by measuring the activity of LDH released into the incubation medium when cellular membranes were damaged. […] After treatment, the released LDH activity in the medium was measured according to the instructions of the Cytotoxicity Detection Kit (Roche Applied Science, Mannheim, Germany). Absorbance at 490 nm was measured using SpectraMax M5. […]
LDH release was measured at 24 hours after the MPP^+ challenge.

zebrafish = assay: MPTP-induced dopaminergic neuron loss in zebrafish (TH whole-mount immunostaining); type: in vivo, Danio rerio; conditions: for TH+ density, percentage of the control group: 360 μM MPTP 48 h, 1 dpf zebrafish
Description: Zebrafish at 1 dpf were exposed to BHDPC (3, 10, 30 μM) with or without MPTP for 48 h. Then fish were fixed for whole mount immunostaining. The morphology change of dopaminergic neurons in zebrafish brain was indicated by immunostaining with antibody against tyrosine hydroxylase (TH). Statistical analysis of TH density was accessed in each 10 fish/group. […] Zebrafish at 1 dpf were exposed to different concentrations of BHDPC with or without MPTP for 48 h. Then fish were fixed for whole mount immunostaining.
The AB strain of wild type zebrafish (Danio rerio) was maintained as described in the Zebrafish Handbook. Zebrafish were staged by days post fertilization […]. For breeding, groups of male and female (3:2) adult zebrafish were placed in 10-L plastic aquarium equipped with spawning nets in the evening. In the following morning, eggs were collected from the breeding group tanks. Normally developed fertilized eggs were selected under a stereomicroscope for further studies. The MPTP manipulation was performed with appropriate safety precautions and all MPTP-containing water was bleached.
Whole-mount immunostaining in zebrafish was performed as previously described. 3 dpf Zebrafish larvae were fixed with 4% paraformaldehyde in PBS for 30 min, […] (TH) staining was performed as previously described. Briefly, zebrafish were fixed in 4% paraformaldehyde in PBS for 5 h. Fixed samples were blocked (2% lamb serum and 0.1% BSA in PBST) for 1 h at room temperature. A mouse monoclonal anti-tyrosine hydroxylase (TH) antibody (Millipore, Billerica, MD, USA) was used as the primary antibody and incubated with samples overnight at 4° C. On the next day, samples were washed six times with PBST (each wash lasted 30 min), followed by incubation with Alexa Fluor® 488 goat anti-mouse antibodies. After immunostaining, zebrafish were mounted with 3.5% methylcellulose and photographed. Semi-quantification of the area of TH^+ cells was assessed by an investigator, unaware of the drug treatment, using Image-J software. Results are expressed as percentage of area of TH^+ cells in untreated normal control groups.
In this example, the in vivo animal model was used to determine the neuroprotective effect of BHDPC. Anti-tyrosine hydroxylase (TH) whole mount immunostaining was used to determine dopaminergic neuronal populations in zebrafish larvae (FIG. 15A). TH activity is the key enzyme responsible for dopamine biosynthesis in the CNS. […] The dopamine reuptake inhibitor nomifensine (Nom), which protected against MPTP-induced neurotoxicity in vivo was used as a positive control. The treatment of larvae with 30 μM of nomifensine, a positive control drug attenuated MPTP-induced neurotoxicity, with TH^+ density […] by 30% compared to the MPTP group.
L-deprenyl, which is a substituted phenethylamine used in treatment of early Parkinson's disease, was used as a positive control.

SH-SY5Y cells = assay: Effect of PKA inhibitor H89 on BHDPC neuroprotection under MPP+ cytotoxicity; type: cell-based, human; conditions: with H89
Excerpt: To further confirm the involvement of PKA activation in the protective effects of BHDPC, H89, a PKA inhibitor was used to measure cell survival under MPP^+ cytotoxicity (FIG. 9).

NIH mice = assay: Acute toxicity assay in NIH mice; type: in vivo; conditions: maximum dose, observed 14 days
Description: NIH mice, sex in half, for acute toxicity assay was supplied by Guangzhou Medicinal Experiment Animal Center and the animal qualification code was 44007200007090 and the certificate number was SCXK (Guangdong) 2013-0002. The animals were kept in the SPF-grade animal laboratory which was conformed to the SPF grade requirement of animal testing facility, where temperature was within the range of 22° C. (±2° C.) and the humidity was in the range of 30-70%. The diurnal lighting and darkness cycle was 12 hours. The air change per hour was in the range of 10-20 times. The approval no. of the SPF animal laboratory was SYXK (Guangdong) 2005-0062. The rat chow was the SPF-grade full pellet for mouse, which was bought from Guangdong Medicinal Laboratory Animal Center. The nutritional values and the sanitation condition were conformed to the SPF-grade requirement for animal testing. Antiseptic water were given ad libitum.
NIH mice were randomly divided into 6 groups. Ten NIH mice, sex in half, were assigned to for each group. […]

COc1cc(C2C(C(=O)OCc3ccccc3)=C(C)Nc3nnnn32)ccc1O (stereo not drawn) [BHDPC, benzyl 7-(4-hydroxy-3-methoxyphenyl)-5-methyl-4,7-dihydrotetrazolo[1,5-a]pyrimidine-6-carboxylate]
MPP+-induced neuronal death (LDH release) (primary cortical neurons): prevented MPP^+-induced neuronal death | TH+ density, percentage of the control group (zebrafish; 3 μM): 66% | TH+ density, percentage of the control group (zebrafish; 10 μM): 74% | TH+ density, percentage of the control group (zebrafish; 30 μM): 90% | MPTP-induced TH+ density decrease (FIG. 15B) (zebrafish; 3 and 10 μM, MPTP 48 h, dose-dependent): rescue dramatically; also recorded: protected against MPTP-induced DA neuron loss | toxicity in the vital organs (zebrafish; BHDPC treated zebrafish compared to control groups): No toxicity was observed | neuroprotective effect of BHDPC in presence of PKA inhibitor H89 (SH-SY5Y cells): abolished | toxic effects (NIH mice; 5 mg/kg, iv): no toxic effects were observed | toxic effects (NIH mice; 10 mg/kg, oral gavage): no toxic effects were observed
